From patent US12173330B2, “Method for producing hydroxy-L-pipecolic acid” (API CORPORATION, priority 2015, dated 2024)
Read-outs that look alike come from different tables or passages of the source.

Columns and labels:
[1] = molecular target: Gibberella zeae PH-1 L-pipecolic acid trans-4-hydroxylase GzPH, SEQ ID NO: 16 (Fusarium graminearum, UniProt I1RHG1)
[2] = molecular target: T1, Xenorhabdus doucetiae FRM16 L-proline cis-4-hydroxylase XdPH, SEQ ID NO: 8 (Xenorhabdus doucetiae, UniProt A0A068QPC1); assay type: biochemical; conditions: for kcat: calculated from Vmax and molecular weight
T1 sequence (A0A068QPC1 1-294): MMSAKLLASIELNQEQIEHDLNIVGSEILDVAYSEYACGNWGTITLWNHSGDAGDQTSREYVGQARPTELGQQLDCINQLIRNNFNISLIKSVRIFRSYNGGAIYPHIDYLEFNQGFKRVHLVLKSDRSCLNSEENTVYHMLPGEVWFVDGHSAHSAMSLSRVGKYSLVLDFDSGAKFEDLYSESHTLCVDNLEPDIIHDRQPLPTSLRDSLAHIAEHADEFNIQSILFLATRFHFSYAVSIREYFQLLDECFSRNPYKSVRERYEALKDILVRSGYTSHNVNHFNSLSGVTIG

[3] = system: Kordia jejudonensis amino acid hydroxylase KjPH, SEQ ID NO: 18; assay type: biochemical; conditions: for Km / Vmax: 20 mmol/L 2-oxoglutaric acid, 30° C.; for kcat: calculated from Vmax and molecular weight
[4] = molecular target: Sinorhizobium meliloti 1021 L-proline cis-4-hydroxylase SmPH, SEQ ID NO: 10 (Sinorhizobium meliloti, UniProt Q92LF6); assay type: biochemical; conditions: for kcat: calculated from Vmax and molecular weight
[5] = molecular target: Segniliparus rugosus ATCC BAA-974 L-pipecolic acid cis-5-hydroxylase SruPH, SEQ ID NO: 4 (Segniliparus rugosus, UniProt E5XT07); conditions: for Vmax: 20 mmol/L 2-oxoglutaric acid, 30° C.; for kcat: calculated from Vmax and molecular weight
[6] = system: Micromonospora chokoriensis amino acid hydroxylase McPH (L-pipecolic acid 5-hydroxylase), wild type, SEQ ID NO: 2; assay type: biochemical
[7] = molecular target: Colletotrichum gloeosporioides Nara qc5 L-pipecolic acid trans-4-hydroxylase CgPH, SEQ ID NO: 12 (Colletotrichum fructicola, UniProt L2G7W2)
[8] = molecular target: T2, Catenulispora acidiphila NBRC102108 L-proline cis-4-hydroxylase CaPH, SEQ ID NO: 6 (Catenulispora acidiphila, UniProt C7Q927); assay type: biochemical; conditions: substrate: L-proline; calculated from Vmax and molecular weight
T2 sequence (C7Q927 1-290): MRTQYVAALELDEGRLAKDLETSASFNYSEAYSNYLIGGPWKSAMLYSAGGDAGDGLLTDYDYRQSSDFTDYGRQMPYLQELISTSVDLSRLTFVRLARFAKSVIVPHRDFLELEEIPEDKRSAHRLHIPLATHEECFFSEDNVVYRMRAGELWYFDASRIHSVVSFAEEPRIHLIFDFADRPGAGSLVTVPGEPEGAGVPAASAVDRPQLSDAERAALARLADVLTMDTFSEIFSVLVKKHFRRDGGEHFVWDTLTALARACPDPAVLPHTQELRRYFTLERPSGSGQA

[9] = substrate: L-proline, 20 mmol/L 2-oxoglutaric acid, 30° C.
[10] = substrate: L-pipecolic acid, 20 mmol/L 2-oxoglutaric acid, 30° C.
[11] = substrate: L-pipecolic acid, calculated from Vmax and molecular weight

O=C(O)[C@@H]1CCCN1 [L-proline]
catalytic reaction efficiency for L-proline relative to that for L-pipecolic acid ([1]; kcat/Km ratio): 0 | catalytic reaction efficiency for L-proline relative to that for L-pipecolic acid ([2]; kcat/Km ratio): 119% | Vmax [2, 9]: 1.44 U/mg-protein | kcat ([2]; substrate: L-proline): 0.80 | catalytic reaction efficiency for L-proline relative to that for L-pipecolic acid ([3]; kcat/Km ratio): 115% | Km ([3]; substrate: L-proline): 480 µM | Vmax ([3]; substrate: L-proline): 0.34 U/mg-protein | kcat ([3]; substrate: L-proline): 0.18 | catalytic reaction efficiency for L-proline relative to that for L-pipecolic acid ([4]; kcat/Km ratio): 114% | Vmax [4, 9]: 0.06 U/mg-protein | kcat ([4]; substrate: L-proline): 0.03 | catalytic reaction efficiency for L-proline relative to that for L-pipecolic acid ([5]; kcat/Km ratio): 754% | Vmax ([5]; substrate: L-proline): 0.13 U/mg-protein | kcat ([5]; substrate: L-proline): 0.07 | catalytic reaction efficiency for L-proline relative to that for L-pipecolic acid ([6]; kcat/Km ratio): 0 | catalytic reaction efficiency for L-proline relative to that for L-pipecolic acid ([7]; kcat/Km ratio): 0 | kcat [8]: 0.01

O=C(O)[C@@H]1CCCCN1 [L-pipecolic acid]
Vmax [1, 10]: 114.94 U/mg-protein | kcat [1, 11]: 72.48 | kcat ([2]; substrate: L-pipecolic acid): 0.64 | Km ([3]; substrate: L-pipecolic acid): 490 µM | Vmax ([3]; substrate: L-pipecolic acid): 0.30 U/mg-protein | kcat ([3]; substrate: L-pipecolic acid): 0.16 | kcat ([4]; substrate: L-pipecolic acid): 0.02 | Vmax ([5]; substrate: L-pipecolic acid): 0.05 U/mg-protein | kcat ([5]; substrate: L-pipecolic acid): 0.03 | Km [6, 10]: 240 µM | Vmax [6, 10]: 0.06 U/mg-protein | kcat [6, 11]: 0.03 | Vmax [7, 10]: 70.42 U/mg-protein | kcat [7, 11]: 43.80
